Measurements from patent publication US20140005119A1, “COMPOSITIONS AND METHODS FOR INHIBITING THE ACTIVITY OF P110a MUTANT PROTEINS” (Case Western Reserve University, priority 2012, published 2014).
Bridges are numbered along the chain shown (N, C = ends). Where no end group is shown, it is not given here. [ ]: non-standard residue; d: D form. S5 = C=CCCC[C@](C)(N)C(=O)O

Key:
[1] = test system: HCT116 xenograft tumor (p110α H1047R); assay: Peptide treatment of HCT116 xenograft tumors in athymic nude mice; type: in vivo; settings: intratumoral 250 μg daily for 14 days
[2] = target: T1, IRS1-p110α E545K interaction in DLD1 cells (Homo sapiens, UniProt P35568); assay: Co-IP after peptide added to culture medium of p110α E545K 3×FLAG KI DLD1 cells; type: cell-based; parameters: dose or concentration left out as unconfirmed; settings: peptide added to cell culture medium for 16 hr
T1 construct: endogenous in cells; host or cells: DLD1 p110α E545K 3×FLAG knock-in cells (rAAV gene targeting of the endogenous allele)
T1 sequence (P35568 1-1242): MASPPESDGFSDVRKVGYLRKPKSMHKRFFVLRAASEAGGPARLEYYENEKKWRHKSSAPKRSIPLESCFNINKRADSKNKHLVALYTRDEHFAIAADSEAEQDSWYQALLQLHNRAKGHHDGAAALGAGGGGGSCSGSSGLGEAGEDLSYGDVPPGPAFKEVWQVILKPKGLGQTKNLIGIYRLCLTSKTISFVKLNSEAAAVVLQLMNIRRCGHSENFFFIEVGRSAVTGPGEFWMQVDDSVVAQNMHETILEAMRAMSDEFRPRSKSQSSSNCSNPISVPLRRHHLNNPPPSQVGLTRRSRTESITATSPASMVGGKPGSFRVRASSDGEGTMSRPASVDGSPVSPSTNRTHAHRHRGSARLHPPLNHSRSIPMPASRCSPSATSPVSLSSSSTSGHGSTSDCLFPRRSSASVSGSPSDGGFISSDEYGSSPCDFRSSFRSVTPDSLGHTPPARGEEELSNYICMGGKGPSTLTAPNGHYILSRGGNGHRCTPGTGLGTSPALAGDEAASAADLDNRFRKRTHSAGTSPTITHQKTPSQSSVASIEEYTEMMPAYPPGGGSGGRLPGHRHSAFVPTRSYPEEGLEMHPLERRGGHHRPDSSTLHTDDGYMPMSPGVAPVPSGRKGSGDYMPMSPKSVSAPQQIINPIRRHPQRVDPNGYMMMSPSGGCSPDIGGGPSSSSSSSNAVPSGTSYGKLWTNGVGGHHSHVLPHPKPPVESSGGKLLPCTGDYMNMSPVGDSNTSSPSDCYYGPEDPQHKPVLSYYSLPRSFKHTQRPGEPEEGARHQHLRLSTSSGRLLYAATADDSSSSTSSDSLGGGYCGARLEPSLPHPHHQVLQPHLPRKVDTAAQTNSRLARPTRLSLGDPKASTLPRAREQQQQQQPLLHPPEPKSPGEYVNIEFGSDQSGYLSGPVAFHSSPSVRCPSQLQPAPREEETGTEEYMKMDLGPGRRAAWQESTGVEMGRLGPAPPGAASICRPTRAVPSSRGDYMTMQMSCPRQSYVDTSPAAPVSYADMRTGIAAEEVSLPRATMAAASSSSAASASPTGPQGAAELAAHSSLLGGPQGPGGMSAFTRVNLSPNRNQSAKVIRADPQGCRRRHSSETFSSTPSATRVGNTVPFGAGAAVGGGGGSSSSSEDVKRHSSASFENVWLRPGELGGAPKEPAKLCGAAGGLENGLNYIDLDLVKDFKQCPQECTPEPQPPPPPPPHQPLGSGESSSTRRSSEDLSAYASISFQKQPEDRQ
Method: (§1) FIG. 4(A-F) illustrate: (A) Schematic diagram of linear and stapled WT and mutant peptides derived from p110α (SEQ ID NOs: 5, 6, 7 and 8). (B) Immunoblots of cell lysates immunoprecipitated with beads conjugated with anti-FLAG antibodies and then blotted with the indicated antibodies. Linear or stapled WT and mutant peptide were added into culture medium of the p110α E545K 3×FLAG KI cells for 16 hr. (C) Immunoblots of cell lysates immunoprecipitated with anti-p110α antibodies and then blotted with the indicated antibodies. Vaco481 CRC cells were treated with the stapled mutant peptides at the indicated concentration. (D) Immunoblots of cell lysates blotted with the indicated antibodies. The indicated cell lines were treated with the stapled mutant peptide. (E) Immunoblots of cell lysates blotted with the indicated antibodies. The indicated cancer cell lines were treated or untreated with stapled WT or mutant peptide at 50 mM for 2 hr. (F) Immunoblots of cell lysates were blotted with the indicated antibodies. The indicated cancer cell lines were treated with or without 50 mM of stapled mutant peptide for 2 hr.
For Co-immunoprecipitation (Co-IP), cells were harvested, washed with PBS, and then lysed in IP buffer (50 mMTris [pH 7.4], 150 mMNaCl, 5 mMEDTA [pH 8.0], 0.5% NP40, 1 mM PMSF, complete Protease Inhibitor Cocktail tablet [Roche]; supplemented with phosphatase inhibitors [1 mM Na3VO4, 20 mM NaF, 0.1 mM b-glycerophosphate, 20 mM sodium pyrophosphate] when necessary). For immunoblotting (IB) of phospho-specific proteins, unless stated otherwise, cells were lysed in urea buffer (100 mM NaH2PO4, 10 mM Tris-HCl, 8 M Urea, 1 mM Na3VO4, 20 mM NaF, 0.1 mM β-glycerophosphate, 20 mM sodium pyrophosphate, supplemented with complete Protease Inhibitor Cocktail tablet [Roche], pH 8.0). Lysates were then cleared by centrifugation (14,000 rpm, 10 min) and protein concentration in supernatants was determined with a BCA protein assay kit (Pierce, Rockford, Ill.). Equal amounts of total protein were used for IP or IB.

[3] = test system: DLD1 xenograft tumor (p110α E545K); assay: Peptide treatment of DLD1 xenograft tumors in athymic nude mice; type: in vivo; settings: intratumoral 250 μg daily for 14 days, versus water control
Method: FIGS. 5(A-D) illustrate: (A) An athymic nude mouse with a xenograft Tumor growth of cancer cells harboring the p110α E545K Mutation (A and B) and treated with Stapled p110α E545K Mutant Peptide. Five million DLD1 cells were injected subcutaneously and bilaterally into athymic nude mice. Once the xenograft tumors reach 100-150 mm^3, the left side tumors were injected with the stapled WT peptide and the right side tumors were injected with the stapled mutant peptide daily for 14 days. Ten tumors of similar size in five other athymic nude mice were injected with an equal amount of water as controls. Tumor sizes were measured every 2 days. Representative pictures of mice injected with the peptides are shown in (A) and quantitative measurements are shown in (B). Arrows indicate tumors treated with the stapled WT peptide and the red arrows indicate tumors treated with the stapled mutant peptide. The p value was calculated using ANOVA analysis. […] All quantitative measurements are plotted as mean±SEM.
Animal experiments were approved by the Case Western Reserve University Animal Care and Use Committee. […] Tumor volume was measured with electronic calipers, and volumes were calculated as length 3 width^2/2.
Five-week-old male athymic nude mice were injected with 5 million cells subcutaneously and bilaterally. […] The tumor sizes were measured every 2 days.

IRS1 phosphorylation = assay: Immunoblot of treated cells, IRS1 phosphorylation; type: cell-based, human
Method: as §1, with “The indicated cancer cell lines were treated or untreated with stapled WT or mutant peptide at 50 mM for 2 hr. (F) Immunoblots of cell lysates were blotted with the indicated antibodies. The indicated cancer cell lines were treated with or without 50 mM of stapled mutant peptide for 2 hr.” left out
For Co-immunoprecipitation (Co-IP), cells were harvested, washed with PBS, and then lysed in IP buffer (50 mMTris [pH 7.4], 150 mMNaCl, 5 mMEDTA [pH 8.0], 0.5% NP40, 1 mM PMSF, complete Protease Inhibitor Cocktail tablet [Roche]; supplemented with phosphatase inhibitors [1 mM Na3VO4, 20 mM NaF, 0.1 mM b-glycerophosphate, 20 mM sodium pyrophosphate] when necessary). […] Lysates were then cleared by centrifugation (14,000 rpm, 10 min) and protein concentration in supernatants was determined with a BCA protein assay kit (Pierce, Rockford, Ill.). […]

Row | Substance | xenograft tumor growth of HCT116 CRC cells [1] | disruption of IRS1-p110α E545K interaction in DLD1 cells [2] | DLD1 xenograft tumor growth [3] | IRS1 phosphorylation (IRS1 phosphorylation)
1 | H2N-SEITEQEKD^549-FLW-S^553-HRHYC-COOH (SEITEQEK[S5]FLW[S5]HRHYC; staple 9-13; not fully specified (N-terminus, C-terminus); printed as H2N-SEITEQEKD549-FLW-S553-HRHYC-COOH; listed as Homo sapiens) [stapled WT peptide, stapled wild-type p110α counterpart of the stapled mutant peptide, used as control, reference compound] | neither the stapled WT nor the stapled mutant peptide inhibited | neither the linear mutant peptide nor the stapled WT peptide affected the interaction | did not inhibit | –
2 | H2N-SEITKQEK-D^549-FLW-S^553-HRHYC-COOH [stapled mutant peptide] | neither the stapled WT nor the stapled mutant peptide inhibited | effectively disrupted | significantly slowed | did not interfere
